Source: ChEMBL document CHEMBL4033690, “Potential anti-gout constituents as xanthine oxidase inhibitor from the fruits of Stauntonia brachyanthera” (Bioorg Med Chem, 2017)

The molecules below were run against Xanthine dehydrogenase/oxidase (Homo sapiens, UniProt P47989) (assay: Inhibition of xanthine oxidase (unknown origin) using xanthine as substrate preincubated for 15 mins followed by substrate addition by spectrophotometric method).
Chain of Xanthine dehydrogenase/oxidase (P47989 whole entry): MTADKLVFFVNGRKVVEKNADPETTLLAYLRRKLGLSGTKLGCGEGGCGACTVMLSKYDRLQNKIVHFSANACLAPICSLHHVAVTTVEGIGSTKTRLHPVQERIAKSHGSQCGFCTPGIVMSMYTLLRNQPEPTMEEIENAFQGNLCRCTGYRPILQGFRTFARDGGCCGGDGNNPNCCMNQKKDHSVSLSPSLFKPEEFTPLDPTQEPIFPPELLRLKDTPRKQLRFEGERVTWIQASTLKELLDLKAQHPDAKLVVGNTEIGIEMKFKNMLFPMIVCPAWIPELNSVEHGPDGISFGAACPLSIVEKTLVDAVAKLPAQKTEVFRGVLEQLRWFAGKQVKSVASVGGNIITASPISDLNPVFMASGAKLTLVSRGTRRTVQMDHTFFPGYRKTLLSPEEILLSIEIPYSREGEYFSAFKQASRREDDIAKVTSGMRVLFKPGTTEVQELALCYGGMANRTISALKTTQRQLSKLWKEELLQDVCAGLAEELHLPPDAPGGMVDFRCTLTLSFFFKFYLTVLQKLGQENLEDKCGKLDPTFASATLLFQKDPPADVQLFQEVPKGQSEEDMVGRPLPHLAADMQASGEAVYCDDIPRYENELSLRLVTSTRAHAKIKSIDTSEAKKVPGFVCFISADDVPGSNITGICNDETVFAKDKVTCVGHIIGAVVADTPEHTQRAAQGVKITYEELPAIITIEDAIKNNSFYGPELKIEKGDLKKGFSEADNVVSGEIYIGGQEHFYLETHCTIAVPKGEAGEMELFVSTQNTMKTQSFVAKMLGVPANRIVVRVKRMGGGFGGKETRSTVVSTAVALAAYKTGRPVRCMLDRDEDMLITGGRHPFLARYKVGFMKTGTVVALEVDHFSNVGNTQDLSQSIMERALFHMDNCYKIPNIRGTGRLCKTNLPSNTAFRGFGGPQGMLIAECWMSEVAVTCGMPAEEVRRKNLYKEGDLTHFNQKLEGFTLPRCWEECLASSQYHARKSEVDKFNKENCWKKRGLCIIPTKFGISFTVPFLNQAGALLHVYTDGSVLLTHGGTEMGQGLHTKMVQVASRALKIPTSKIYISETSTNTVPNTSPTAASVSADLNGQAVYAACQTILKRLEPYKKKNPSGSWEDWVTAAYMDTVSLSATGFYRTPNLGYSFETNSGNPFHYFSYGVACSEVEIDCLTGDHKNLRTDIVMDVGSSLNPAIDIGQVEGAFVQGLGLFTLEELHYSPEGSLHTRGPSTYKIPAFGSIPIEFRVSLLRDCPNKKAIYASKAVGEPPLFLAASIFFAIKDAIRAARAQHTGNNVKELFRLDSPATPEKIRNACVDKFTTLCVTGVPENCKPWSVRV

Row | IC50 | Structure (SMILES)
1 | > 100 µM | C=C1CC[C@]2(C(=O)O[C@@H]3O[C@H](CO[C@@H]4O[C@H](CO)[C@@H](O[C@@H]5O[C@@H](C)[C@H](O)[C@@H](O)[C@H]5O)[C@H](O)[C@H]4O)[C@@H](O)[C@H](O)[C@H]3O)CC[C@]3(C)C(=CC[C@@H]4[C@@]5(C)CC[C@H](O[C@@H]6O[C@H](CO)[C@@H](O)[C@H](O[C@@H]7OC[C@H](O)[C@H](O)[C@H]7O[C@@H]7O[C@@H](C)[C@H](O)[C@@H](O)[C@H]7O)[C@H]6O)C(C)(C)[C@@H]5CC[C@]43C)[C@@H]2C1
2 | > 100 µM | COc1cc(C(=O)OC[C@@]2(O)CO[C@@H](O[C@H]3[C@H](Oc4ccc(C(=O)O)cc4OC)O[C@H](CO)[C@@H](O)[C@@H]3O)[C@@H]2O)ccc1O
3 | 1.6 µM | O=c1c(O[C@@H]2O[C@H](CO)[C@@H](O)[C@H](O)[C@H]2O)c(-c2ccc(O)c(O)c2)oc2cc(O)cc(O)c12 [ISOQUERCETIN]
